From patent US20120083464A1, “NEUROPROTECTIVE PROPERTIES OF 5'-METHYLTHIOADENOSINE” (priority 2009, published 2012)
Entries after “also recorded” stand apart in the source; their conditions may differ.

What was measured:
[1] = system: pure rat cortical neuronal culture; test: NMDA-mediated toxicity (LDH release) in pure neuronal culture; format: cell-based, Sprague-Dawley rat; conditions: NMDA 300 μM, MTA 100 to 500 μM
Protocol: Primary cultures of brain cortical neurons were essentially prepared as described previously (Bruno et al., 2001, Eur. J. Neurosci., 13:1469-1478). The fronto-lateral cortical lobes were dissected out of Sprague-Dawley embryonic day 17 foetuses and were mechanically dissociated in Hanks' balanced solution. The cortical lobes were triturated by aspirating 7-10 times using a Pasteur pipette with a flame-narrowed tip. After centrifugation at 800 g for 5 min, cells were resuspended in serum-free Neurobasal medium (GIBCO) supplemented with B27 (GIBCO) containing 2 mM L-glutamine, penicillin (20 units/ml) and streptomycin (5 μg/ml) and plated on poly-L-lysine-coated 24-well culture plates or on poly-L-lysine-coated 6-well culture plates. […]
For viability experiments, cortical neurons or mixed cortical neurons and glia, seeded onto 24-well plates at 15×10^4 cells/well and cultured for 7 DIV, were treated with vehicle (DMSO 1‰), NMDA (300 μM), NMDA (300 μM)+MTA (at different concentrations) or NMDA (300 μM)+MK-801 (10 μM) for 6 h and 24 h. […] Lactate dehydrogenase (LDH) activity was measured as an index of cellular death and mortality was expressed as percentage of LDH released to culture media. LDH was measured spectrophotometrically at 490 nm on a 96-well plate reader by using the Cytotox 96 Kit according to the manufacturer instructions (Promega). […]

[2] = system: PC12 cells; test: Neurite differentiation assay in PC12 cells; format: cell-based, rat
Protocol: The PC12 cells were maintained in HAM's medium at 37° C., supplemented with 2.5% of fetal bovine serum, 15% of horse serum and penicillin/streptomycine. The neurite differentiation assays were conducted using 24-well plates treated with collagen in HAM's medium supplemented with 0.5% of fetal bovine serum and penicillin/streptomycine. NGF (100 ng/ml) or MTA at different concentrations (25 μM, 100 μM and 2 mM) were added to the cultures and, after four days, the percentage of cells with neurites longer than twice cell body. In each experiment a minimum of 300 cells were randomly counted.

[3] = system: RN22 cells; test: Hydrogen peroxide stress in RN22 cells, ROS levels; format: cell-based, rat; conditions: hydrogen peroxide 100 μM, different time periods
Protocol: RN22 cells were maintained at 37° C. in DMEM medium supplemented with 10% of fetal bovine serum and penicillin/streptomycine. The assays against stress with copper sulphate were conducted using 24-well plates in DMEM medium without serum. After allowing cell adherence for three days, NGF (100 ng/ml) or MTA was added to different concentrations half an hour before the copper sulphate (150 μM). After twenty-four hours, cell viability was quantified by MTT assay and ROS production was quantified by fluorescence. Assays against stress with hydrogen peroxide were conducted in the same way as the foregoing, using 100 μM hydrogen peroxide as a stress-producing agent.
We determined the quantity of ROS produced by the cells after stress with and without treatment. 2′,7′- dichlorodihydrofluorescein (DCFH) is generally used to measure oxidative stress in cells. The cells were incubated with DCFH-DA (10 μM) at 37° C. for thirty minutes. After incubation, the cells were washed twice with PBS and lysed by adding 10 mM Tris-HCL buffer containing 0.5% of Tween 20. The homogenates were then centrifuged at 10,000 g for ten minutes to separate the cell residue and […] fluorescence in the supernatant was measured using a fluorometer (excitation wavelength 492-495 nm, emission wavelength 517-527 nm) (Invitrogen).

CSC[C@H]1O[C@@H](n2cnc3c(N)ncnc32)[C@H](O)[C@@H]1O [MTA, 5′-methylthioadenosine]
effect on NMDA-mediated toxicity (LDH release) [1]: no neuroprotective effect; also recorded: Lack of effect
neurite development at the highest concentration tested ([2]; MTA 5 mM): does not affect neurite development
most optimal MTA concentration for formation of new neurites ([2]; four days): 1 mM
neurite differentiation (formation of new processes) ([2]; four days, concentration dependent): develop new processes
ROS production under hydrogen peroxide stress [3]: capable of reducing ROS production
